Source: patent publication US20070248950A1, “Supported polydiacetylene 3-D arrays for flourescent or phosphorescent detection” (Analytical Biological Services, Inc., priority 2006, published 2007)

Target: Bee venom phospholipase A2 (PLA2) (Apis mellifera, UniProt P00630)
Format: biochemical

Chain of Bee venom phospholipase A2 (PLA2) (P00630 34-167 limits assumed): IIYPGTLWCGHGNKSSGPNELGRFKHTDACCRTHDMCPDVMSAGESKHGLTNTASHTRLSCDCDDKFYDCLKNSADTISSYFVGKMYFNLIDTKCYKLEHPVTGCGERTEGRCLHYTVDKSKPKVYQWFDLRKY

SMILES: CC(=O)O[C@H]1C[C@@H]2[C@@]3(C)CCCC(C)(C)[C@@H]3CC[C@@]2(C)[C@@H]2CC=C(C=O)[C@H](C=O)[C@@]12C [schalaradiol, 12-epi-scalaradial]
- inhibition of PLA2 activity (rise in emission at 640 nm of supported liposomes): partial inhibition
